CN(C)CCn1[nH]nnc1=S
Conditions	solubility (mole fraction)
in DMF, 293.45 K	0.000803
in DMF, 298.34 K	0.000875
in DMF, 303.35 K	0.00105
in DMF, 308.38 K	0.00122
in DMF, 313.25 K	0.00146
in DMF, 318.22 K	0.00179
in DMF, 323.2 K	0.00212
in DMF, 328.12 K	0.00253
in DMF, 333.3 K	0.00297
in DMF, 338.22 K	0.00335
in DMF, 345.15 K	0.00393
in ethanol, 293.25 K	5.34e-05
in ethanol, 298.15 K	6.16e-05
in ethanol, 302.95 K	7.31e-05
in ethanol, 308.1 K	8.48e-05
in ethanol, 312.94 K	9.91e-05
in ethanol, 318.15 K	0.000118
in ethanol, 322.55 K	0.000133
in ethanol, 327.45 K	0.000156
in ethanol, 332.55 K	0.000181
in ethanol, 338.05 K	0.000206
in ethanol, 342.2 K	0.000227
in isopropanol, 293.15 K	3.47e-05
in isopropanol, 298.28 K	4.15e-05
in isopropanol, 303.35 K	4.8e-05
in isopropanol, 308.14 K	5.43e-05
in isopropanol, 313.25 K	6.15e-05
in isopropanol, 318.2 K	6.96e-05
in isopropanol, 323.25 K	7.96e-05
in isopropanol, 328.16 K	9.09e-05
in isopropanol, 333.35 K	0.000106
in isopropanol, 338.32 K	0.000123
in isopropanol, 343.45 K	0.000144
in methanol, 293.05 K	0.000156
in methanol, 298.17 K	0.000186
in methanol, 303.15 K	0.000219
in methanol, 308.2 K	0.000254
in methanol, 313.05 K	0.000291
in methanol, 318.24 K	0.000348
in methanol, 323.25 K	0.000414
in methanol, 328.23 K	0.000485
in methanol, 333.15 K	0.000571
in n-butanol, 293.15 K	6.11e-05
in n-butanol, 298.21 K	6.93e-05
in n-butanol, 303.35 K	7.66e-05
in n-butanol, 308.14 K	8.49e-05
in n-butanol, 313.05 K	9.47e-05
in n-butanol, 318.28 K	0.000103
in n-butanol, 323 K	0.000112
in n-butanol, 328.14 K	0.000126
in n-butanol, 333.05 K	0.000141
in n-butanol, 338.12 K	0.000158
in n-butanol, 343.1 K	0.000179
in n-propanol, 293.17 K	5.79e-05
in n-propanol, 298.14 K	7.34e-05
in n-propanol, 303.25 K	8.52e-05
in n-propanol, 308.12 K	0.000107
in n-propanol, 313.15 K	0.000127
in n-propanol, 318.23 K	0.00014
in n-propanol, 323.2 K	0.000161
in n-propanol, 328.34 K	0.000176
in n-propanol, 332.95 K	0.000189
in n-propanol, 338.18 K	0.000216
in n-propanol, 343.16 K	0.000241
in sec-butanol, 293.35 K	3.16e-05
in sec-butanol, 298.37 K	3.49e-05
in sec-butanol, 303.25 K	4.12e-05
in sec-butanol, 308.24 K	4.36e-05
in sec-butanol, 313.15 K	4.84e-05
in sec-butanol, 318.12 K	6.19e-05
in sec-butanol, 323 K	7.52e-05
in sec-butanol, 327.33 K	9.18e-05
in sec-butanol, 330.85 K	0.00011
in sec-butanol, 335.57 K	0.000133
in sec-butanol, 340.5 K	0.000165
in water, 293.15 K	0.00421
in water, 298.12 K	0.00516
in water, 303.15 K	0.00636
in water, 308.22 K	0.008
in water, 313.35 K	0.0101
in water, 318.28 K	0.0127
in water, 323.35 K	0.0161
in water, 328.24 K	0.0199
in water, 333.35 K	0.0246
in water, 338.21 K	0.0303
in water, 343.3 K	0.0371
